{"source": "patent US11413242B2", "about": "“Formulations of Tie-2 activators and methods of use thereof” (EyePoint Pharmaceuticals, Inc., priority 2019, dated 2022)", "key": {"[1]": {"system": "patients with diabetic macular edema", "experiment": "Change in intraocular pressure from baseline, Compound 1 BID at varying doses, 28 Day EOT (FIG. 1)", "assay_type": "in vivo, human", "details": "doses greater than 15 mg BID", "protocol": "The difference in IOP was determined at the end of the trial, which was 28 days after treatment began (28 Day EOT). Changes in IOP were determined both in the study eye and the fellow eye."}, "[2]": {"experiment": "Intraocular pressure at Baseline and Months 1-3, Compound 1 with sham or RBZ, or placebo with RBZ (TABLE 1, FIG. 2)", "assay_type": "in vivo", "protocol": "The difference in IOP was determined relative to a pre-treatment baseline (Base) at months 1, 2, and 3 (M1-M3). Intraocular pressure was determined in the study eye in millimeters of mercury (mmHg).\nThe difference in IOP was determined relative to a pre-treatment Baseline at Months 1, 2, and 3. Intraocular pressure was determined in the study eye/fellow eye in mmHg."}}}
{"molecule": "COC(=O)N[C@@H](Cc1ccccc1)C(=O)N[C@@H](Cc1ccc(NS(=O)(=O)O)cc1)c1csc(-c2cccs2)n1", "note": "[Compound 1]", "values": [{"measurement": "effect on intraocular pressure (IOP) relative to pre-treatment baseline", "setting": "[1]", "value": "decreased IOP"}, {"measurement": "IOP, fellow eye", "setting": "[2]; Month 1", "value": 14.5, "unit": "mmHg"}, {"measurement": "IOP, fellow eye", "setting": "[2]; Month 2", "value": 14.3, "unit": "mmHg"}, {"measurement": "IOP, fellow eye", "setting": "[2]; Month 3", "value": 14.0, "unit": "mmHg"}, {"measurement": "IOP, fellow eye", "setting": "[2]; pre-treatment Baseline", "value": 15.4, "unit": "mmHg"}, {"measurement": "IOP, study eye", "setting": "[2]; Month 1", "value": 14.8, "unit": "mmHg"}, {"measurement": "IOP, study eye", "setting": "[2]; Month 2", "value": 14.4, "unit": "mmHg"}, {"measurement": "IOP, study eye", "setting": "[2]; Month 3", "value": 14.3, "unit": "mmHg"}, {"measurement": "IOP, study eye", "setting": "[2]; pre-treatment Baseline", "value": 15.8, "unit": "mmHg"}]}
